Results as given in article PMC12628291 (Inorganic Chemistry, 2025).
Read-outs that look alike come from different tables or passages of the source.

Experiments:
[1] = UV-vis absorption, emission spectra and luminescence quantum yield; type: physicochemical; settings: for Φ (luminescence quantum yield): air-equilibrated; for λem: excitation 450 nm
Description: We studied the absorption and emission properties of the complexes in different solvents including MeCN, MeOH, and Tris-HCl aqueous buffer (0.05 M, pH 7.4). Due to solubility limitations, only complexes 1–4 were studied in Tris-HCl aqueous buffer. Indicatively, the comparative UV–vis absorption and emission spectra of complexes 4 and 7 in MeCN at 298 K are presented in Figure e.
The photophysical data are summarized in Tables and , and all measurements were conducted in air-equilibrated solvents.
(§1) ^1H, ^1H–^1H COSY, and ^13C NMR spectra were recorded on a 500 MHz NMR spectrometer (Agilent). Absorption spectra were acquired by using a JASCO V-750 spectrophotometer. For recording the emission spectra, we used an Edinburgh Instruments FS5 spectrofluorometer equipped with a red-sensitive Hamamatsu R13456 photomultiplier tube (PMT) and a 150 W xenon arc lamp as the light source. All spectra were corrected for detector response using the correction files and software (Fluoracle) provided by the manufacturer. The luminescence quantum yields of the complexes were calculated using the optically dilute method with an air-equilibrated aqueous solution of [Ru(bpy)3]-Cl2 (Φem = 0.049, λex = 436 nm) as the standard solution. , Emission lifetime measurements were performed using an Edinburgh Instruments mini-τ lifetime spectrometer with a bandpass filter (±40 nm bandpass) at 650 nm. The excitation source was an Edinburgh Instruments picosecond pulsed LED (EPLED-320) with a peak wavelength of 326.8 nm and a pulse width of 910 ps. The detector was a thermoelectrically cooled, high-speed, red-sensitive photomultiplier tube (Hamamatsu H10720-01). The data were analyzed by using the software provided by the manufacturer (Fluoracle). For emission lifetime calculations, the experiments were performed in triplicate, yielding similar results. The MS spectra were acquired using an LC20AD Shimadzu connected to Shimadzu LCMS-2010EV, with a flow rate of 0.4 mL/min MeOH or MeCN + 0.1% formic acid. LCMS analysis was carried out on an Agilent 1260 Infinity with a Raptor C18 column (50 mm × 2.1 mm, 2.7 μm particle size). A two-minute gradient from 5% to 95% MeCN in water was used, supplemented with 0.1% formic acid.

[2] = in water; literature value, reference number not given; cited from earlier work
[3] = parameters: method as in doi:10.1021/ja00432a028; settings: H2O; cited from earlier work
[4] = DLS particle size distribution in Tris-HCl buffer; type: physicochemical; settings: 20 μM
Source text: Given the amphiphilic nature of the complexes, with the functionalized phenanthroline ligand serving as a lipophilic tail and the Ru(II) core serving as a hydrophilic headgroup, it was of interest to investigate the potential tendency of the complexes to form micelle-like aggregates in aqueous solutions. […] Our focus was to investigate the aggregation behavior in a purely aqueous environment, without the use of cosolvents such as DMSO. Since complexes 5–7 could not be solubilized under these conditions, they were not included in the DLS analysis.
The particle size distribution of the complexes was determined by dynamic light scattering (DLS) using a Particle Analyzer Litesizer 500 (Anton Paar, Austria) at 25 °C. 20 μM solutions of complexes 1–4 and of [Ru(bpy)3]-Cl2 in Tris-HCl buffer, as well as 20 μM solutions of complexes 1–4 in Gibco DMEM (Dulbecco’s Modified Eagle Medium with high glucose, L-glutamine, pyruvate, 10% FBS, and without phenol red), were analyzed by DLS. The experiments were performed in triplicate, yielding similar results.

MDA-MB-453 (ER-) cells = assay: MTS viability assay (dark and 457 nm light) in MDA-MB-453; type: cell-based; settings: MDA-MB-453, 457 nm for 12 min at 6 h, 24 h incubation
Description: (§2) We determined the cytotoxicity of all the complexes using the well-established MTS assay against two breast cancer cell lines: MCF-7, which is ER+, and MDA-MB-453, which is ER-.
(§3) In this experiment, the cells were irradiated with blue light (457 nm) for 12 min.
(§4) MDA-MB-453 and MCF-7 cells were grown in high-glucose Dulbecco’s Modified Eagle Medium (DMEM) containing 10% fetal bovine serum at 37 °C with 5% CO2 in humidified air.
(§5) For viability experiments, cells were seeded at a density of 20,000 cells per well in Greiner-Bio black μClear plates. After 24 h, the corresponding ruthenium complexes were added at the appropriate concentrations (30 nM to 100 μM for complexes 1-4 and 30 nM to 20 μM for 5–7, < 1% DMSO) and allowed to incubate. For the phototoxicity experiments, the plate was removed at the six-hour time point and irradiated for 12 min using a Lumidox 457 nm 96-LED array set to 8 mA (2 mW/cm^2, a total of 1.2 J/s). After an overall 24 h incubation period, the media were replaced with fresh media containing an MTS/PMS mixture as per the Promega protocol (MTS: 3-(4,5-dimethylthiazol-2-yl)-5-(3-carboxymethoxyphenyl)-2-(4-sulfophenyl)-2H-tetrazolium; PMS: phenazine methosulfate). After an additional 4 h had passed, the absorbance at 490 nm (MTS) and 635 nm (background) was measured. Cell viability was calculated from the dose-response curve of the absorbance (MTS – background).

MCF-7 (ER+) cells [5] = assay: MTS viability assay (dark and 457 nm light) in MCF-7; type: cell-based; settings: for IC50: MCF-7, 457 nm for 12 min at 6 h, 24 h incubation, MTS; for SI = selectivity index, [IC50(ER‑)]light/[IC50(ER+)]light: MDA-MB-453 (ER-) vs MCF-7 (ER+)
Description: as §2, §3, §4, §5

[6] = Emission lifetime (time-resolved luminescence decay); type: physicochemical
Description: Given the changes in the aggregation profiles of the complexes in cell culture medium containing FBS, as observed by DLS analysis, we also examined their emission lifetimes under these conditions (Table and Figure S52F–J). For this analysis, an 80 μM solution of each complex was utilized to achieve an improved signal-to-background ratio. […] However, the emission decay behavior of complexes 2–4 differs markedly from that of the estrogen-free control and from that of [Ru(bpy)3]^2+. In a cell culture medium with 10% FBS, the decay profile of complex 1 can be fitted to a biexponential model, comprising a short-lived component (355 ns, 6.6% contribution), consistent with the monomeric species, and a long-lived component (672 ns, 93.4% contribution) attributable to the aggregated form. […] Consistent with the behavior observed in Tris-HCl buffer, the addition of MeCN to a solution of complex 3 in FBS-containing medium led to aggregate disruption once the MeCN content reached 30%, as evidenced by a decrease in emission lifetime to 436 ns, signaling the dominance of the nonaggregated form (Figure f). Overall, our findings collectively confirm that aggregation correlates with the observed emission enhancement in aqueous solutions and that complexes 1–4 predominantly exist as self-assembled micelle-like aggregates in the cell culture medium used for our cellular studies. Nevertheless, it cannot be unequivocally determined from these experiments whether the complexes preserve their aggregated form in the intracellular environment.
as §1

[7] = tested on: MCF-7 (ER+) and MDA-MB-453 (ER−) cells; assay: Cellular uptake of ruthenium by ICP-MS; type: cell-based; settings: 20 μM, 6 h, MCF-7 vs MDA-MB-453
Description: Thus, the cellular uptake of complexes 3 and 4 was evaluated and compared to the control complex 1 in ER+ (MCF-7) and ER– (MDA-MB-453) cell lines using inductively coupled plasma mass spectrometry (ICP-MS) (Figure b). […] This trend is consistent with its increased lipophilicity and the brighter red luminescence observed by microscopy for this complex. It is well established that lipophilicity can enhance membrane permeability and cellular internalization.
Cells were seeded at the appropriate density in 6-well plates (1 × 10^6 cells per well for MDA-MB-453 and 400,000 cells per well for MCF-7) and allowed to adhere for 24 h. Ruthenium complexes were added to the wells by direct dilution of a 10 mM DMSO stock solution to yield a final concentration of 20 μM in culture medium. After 6 h of incubation, the medium was removed, and the cells were washed three times with phosphate-buffered saline (PBS) to eliminate extracellular ruthenium. Cells were subsequently detached using trypsin, collected by centrifugation, and counted. […] The monitored isotope was 101Ru. A set of ruthenium calibration standards was used to establish and model the linear relationship between signal and concentration before the samples were injected, signal measured, and averaged across three consecutive signal acquisitions. The amount of metal detected in the cell samples was normalized to ppb per 1,000,000 cells.

MCF-7 (ER+) cells [8] = assay: Luminescence microscopy of treated ER+ cells; type: cell-based; settings: Figure S62, 6 h incubation
Description: 3 Microscopy imaging of cells incubated with complex 3 (20 μΜ) and complex 4 (10 μΜ) for 6 h: brightfield (left), photosensitizer luminescence (middle), and overlaid (right) images. (b) Cellular uptake by ICP-MS of complexes 1, 3, and 4 (20 μM, 6 h) in MCF-7 (ER+) and MDA-MB-453 (ER−) cells.
For imaging experiments, cells were seeded at a density of 20,000 cells per well in Greiner-Bio black μClear plates. After 24 h, the corresponding ruthenium complexes were added at the appropriate concentrations. After 6 h, the cells were washed 3 times with media, and the media were replaced with phenol-red-free media. Compounds were imaged on an Eclipse-Ti2 Widefield system (Nikon), equipped with a Prime 95B sCMOS camera (Teledyne), pE-400 LED light source (CoolLED), a 20× or 40× objective, and emission filters for green (515/30 nm), orange (600/50 nm), red (641/75 nm), and far-red (705/72 nm). The bright-field channel was used to autofocus each well, after which the complexes were excited using a 450 nm laser and the red emission channel collected.

[9] = Tris-HCl buffer (0.05 M, pH 7.4), 298 K
[10] = Tris-HCl buffer (0.05 M, pH 7.4)
[11] = cell culture medium (DMEM, 10% FBS, no phenol red), 80 μM
[12] = cell culture medium with 10% FBS, biexponential fit

[Cl][Ru][Cl].c1ccc(-c2ccccn2)nc1.c1ccc(-c2ccccn2)nc1.c1ccc(-c2ccccn2)nc1 [[Ru(bpy)3]Cl2, reference compound]
Φ (luminescence quantum yield) ([1]; MeCN (298 K)): 1.6% | λabs [1, 9]: 453 nm | λem [1, 9]: 630 nm | 1O2 quantum yield (ΦΔ) [2]: 0.41 | Φ (luminescence quantum yield) [3]: 4.9^55% | aggregate size (DLS, particle size distribution by intensity) [4]: no visible aggregates were observed | IC50 (MDA-MB-453 (ER-) cells): > 100 µM | IC50 (MCF-7 (ER+) cells [5]): > 100 µM | SI = selectivity index, [IC50(ER‑)]light/[IC50(ER+)]light (MCF-7 (ER+) cells [5]): NPD ^b | τ1 ([6]; MeCN): 156 ns | τ1 ([6]; MeOH): 205 ns | τ1 [6, 10]: 329 ns | τ1 [6, 11]: 357 ns

CCCCc1cn(-c2cc3cccnc3c3ncccc23)nn1.[Cl-].[Cl-].[Ru+2].c1ccc(-c2ccccn2)nc1.c1ccc(-c2ccccn2)nc1 [Complex 1, [Ru(bpy)2(L-1a)]Cl2]
ε ([1]; MeCN (298 K)): 1.2 × 10^4 M^–1 cm^–1 | λabs ([1]; MeCN (298 K)): 450 nm | Φ (luminescence quantum yield) ([1]; MeCN (298 K)): 2.1% | λem ([1]; MeCN (298 K)): 625 nm | ε [1, 9]: 1.1 × 10^4 M^–1 cm^–1 | λabs [1, 9]: 449 nm | Φ (luminescence quantum yield) [1, 9]: 5.6% | λem [1, 9]: 635 nm | uptake in ER+ cells compared to ER– cells (ICP-MS) [7]: slightly higher accumulation in ER– cells than in ER+ cells | intracellular luminescence, ER+ versus ER– cells (microscopy) (MCF-7 (ER+) cells [8]): no notable difference in luminescence between the two cell lines | aggregate size (DLS, particle size distribution by intensity) [4]: around 100 nm | IC50 (MDA-MB-453 (ER-) cells): > 100 µM | IC50 (MCF-7 (ER+) cells [5]): > 100 µM | SI = selectivity index, [IC50(ER‑)]light/[IC50(ER+)]light (MCF-7 (ER+) cells [5]): NPD ^b | τ1 ([6]; MeCN): 165 ns | τ1 ([6]; MeOH): 225 ns | τ1 [6, 10]: 599 ns | contribution of τ1 (short-lived component) to the decay ([6]; Tris-HCl buffer, biexponential fit): less than 1% | τ1 [6, 11]: 355 ns | τ2 [6, 11]: 672 ns | contribution of τ1 to the decay [6, 12]: 6.6% | contribution of τ2 to the decay [6, 12]: 93.4%
